Laboratory results: patent US9150566B2, “2-(1,2,3-triazol-2-yl)benzamide and 3-(1,2,3-triazol-2-YL)picolinamide derivatives as orexin receptor antagonists” (ACTELION PHARMACEUTICALS LTD., priority 2011, dated 2015)
Where two headings read alike, the source gives them in different places.

Experiments:
CYP3A4 = CYP3A4 (Homo sapiens (Human), UniProt P08684); test: CYP3A4 inhibition assay (human liver microsomes, testosterone 6β-hydroxylation); conditions: read-out: CYP3A4 IC50, 40 μM testosterone
human orexin-2 receptor = human orexin-2 receptor (Homo sapiens (Human), UniProt O43614); test: In vitro intracellular calcium measurements (FLIPR), antagonistic activity on orexin-2 receptor; type: cell-based; conditions: read-out: IC50 OX2
Experimental: (§1) In Vitro Assay: Intracellular Calcium Measurements:
(§2) Chinese hamster ovary (CHO) cells expressing the human orexin-1 receptor and the human orexin-2 receptor, respectively, are grown in culture medium (Ham F-12 with L-Glutamine) containing 300 μg/mL G418, 100 U/mL penicillin, 100 μg/mL streptomycin and 10% heat inactivated fetal calf serum (FCS). The cells are seeded at 20′000 cells/well into 384-well black clear bottom sterile plates (Greiner). The seeded plates are incubated overnight at 37° C. in 5% CO2.
(§3) Within the Fluorescent Imaging Plate Reader (FLIPR Tetra, Molecular Devices), antagonists are added to the plate in a volume of 10 μL/well, incubated for 120 min and finally 10 μL/well of agonist is added. Fluorescence is measured for each well at 1 second intervals, and the height of each fluorescence peak is compared to the height of the fluorescence peak induced by 3 nM orexin-A with vehicle in place of antagonist. […] Optimized conditions were achieved by adjustment of pipetting speed and cell splitting regime. The calculated IC50 values may fluctuate depending on the daily cellular assay performance. Fluctuations of this kind are known to those skilled in the art.

human orexin-1 receptor = human orexin-1 receptor (Homo sapiens (Human), UniProt O43613); test: In vitro intracellular calcium measurements (FLIPR), antagonistic activity on orexin-1 receptor; type: cell-based; conditions: read-out: IC50 OX1
Experimental: as §1, §2, §3

[1] = CHO cells expressing human orexin-2 receptor, FLIPR, 3 nM orexin-A agonist, 120 min antagonist incubation, geometric mean if determined several times
[2] = CHO cells expressing human orexin-1 receptor, FLIPR, 3 nM orexin-A agonist, 120 min antagonist incubation, geometric mean if determined several times

Sequence of CYP3A4 (P08684 whole entry): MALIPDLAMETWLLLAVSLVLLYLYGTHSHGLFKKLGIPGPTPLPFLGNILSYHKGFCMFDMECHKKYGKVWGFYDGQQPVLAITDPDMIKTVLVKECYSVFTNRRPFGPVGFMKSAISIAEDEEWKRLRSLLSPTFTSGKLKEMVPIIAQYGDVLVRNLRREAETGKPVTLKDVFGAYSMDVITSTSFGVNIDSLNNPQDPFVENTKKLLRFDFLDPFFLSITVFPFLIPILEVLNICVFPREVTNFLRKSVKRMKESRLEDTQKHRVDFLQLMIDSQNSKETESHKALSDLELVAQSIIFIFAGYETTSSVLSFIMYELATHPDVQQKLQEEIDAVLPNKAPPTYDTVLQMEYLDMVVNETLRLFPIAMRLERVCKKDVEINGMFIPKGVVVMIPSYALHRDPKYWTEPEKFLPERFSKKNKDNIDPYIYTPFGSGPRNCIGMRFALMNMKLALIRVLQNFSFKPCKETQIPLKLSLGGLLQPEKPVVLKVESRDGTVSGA
Sequence of human orexin-2 receptor (O43614 whole entry): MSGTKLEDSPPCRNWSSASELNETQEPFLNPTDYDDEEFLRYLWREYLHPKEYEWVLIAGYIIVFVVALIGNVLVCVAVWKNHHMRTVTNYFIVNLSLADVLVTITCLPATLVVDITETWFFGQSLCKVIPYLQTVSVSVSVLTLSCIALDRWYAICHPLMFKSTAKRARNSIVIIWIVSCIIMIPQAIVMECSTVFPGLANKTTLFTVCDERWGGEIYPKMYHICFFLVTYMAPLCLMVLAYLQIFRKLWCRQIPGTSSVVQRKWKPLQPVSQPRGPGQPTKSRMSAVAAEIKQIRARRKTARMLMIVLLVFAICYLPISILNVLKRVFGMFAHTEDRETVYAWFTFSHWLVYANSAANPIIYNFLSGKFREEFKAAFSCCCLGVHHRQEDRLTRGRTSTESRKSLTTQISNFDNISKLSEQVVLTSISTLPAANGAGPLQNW
Sequence of human orexin-1 receptor (O43613 whole entry): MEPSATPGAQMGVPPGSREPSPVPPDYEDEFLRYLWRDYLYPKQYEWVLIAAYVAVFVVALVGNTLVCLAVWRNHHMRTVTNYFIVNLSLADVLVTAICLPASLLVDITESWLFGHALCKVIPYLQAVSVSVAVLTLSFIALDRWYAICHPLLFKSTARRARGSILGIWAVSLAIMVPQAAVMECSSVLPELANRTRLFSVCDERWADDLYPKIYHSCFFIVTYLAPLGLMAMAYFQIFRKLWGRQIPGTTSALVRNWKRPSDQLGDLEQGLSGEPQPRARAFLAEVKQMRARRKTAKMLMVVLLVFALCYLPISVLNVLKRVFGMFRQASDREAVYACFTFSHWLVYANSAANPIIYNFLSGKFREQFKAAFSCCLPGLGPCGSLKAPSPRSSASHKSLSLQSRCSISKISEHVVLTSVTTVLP

Structure (SMILES) | IC50 (CYP3A4) | IC50 (human orexin-2 receptor; [1]) | IC50 (human orexin-1 receptor; [2]) | IC50 (human orexin-2 receptor) | IC50 (human orexin-1 receptor)
Cc1ccc(C(=O)N2CCO[C@@H](C)[C@H]2Cc2cccc(-n3nccn3)c2)c(-n2nccn2)c1 (single isomer, unassigned) [Example 163, [(2S,3R)-2-Methyl-3-(3-[1,2,3]triazol-2-yl-benzyl)-morpholin-4-yl]-(4-methyl-2-[1,2,3]triazol-2-yl-phenyl)-methanone or [(2R,3R)-2-Methyl-3-(3-[1,2,3]triazol-2-yl-benzyl)-morpholin-4-yl]-(4-methyl-2-[1,2,3]triazol-2-yl-phenyl)-methanone] | 14000 nM |  |  |  | 
COc1cc(C(=O)N2CCOC[C@H]2Cc2cccc(-n3nccn3)c2)c(-n2nccn2)cc1Cl [Example 104, (4-Chloro-5-methoxy-2-[1,2,3]triazol-2-yl-phenyl)-[(R)-3-(3-[1,2,3]triazol-2-yl-benzyl)-morpholin-4-yl]-methanone] | 13000 nM | 117 nM |  |  | 
Cc1cc(C(=O)N2[C@H](Cc3cccc(-n4nccn4)c3)COC[C@@H]2C)c(-n2nccn2)cc1C [Example 74, (4,5-Dimethyl-2-[1,2,3]triazol-2-yl-phenyl)-[(3S,5R)-3-methyl-5-(3-[1,2,3]triazol-2-yl-benzyl)-morpholin-4-yl]-methanone] |  | 355 nM | 11 nM |  | 
Cc1ccc(-n2nccn2)c(C(=O)N2CCOC[C@H]2Cc2cccc(-c3cnccn3)c2)c1 [Example 41, (5-Methyl-2-[1,2,3]triazol-2-yl-phenyl)-[(R)-3-(3-pyrazin-2-yl-benzyl)-morpholin-4-yl]-methanone] |  | 1040 nM | 8 nM |  | 
O=C(c1ccccc1-n1nccn1)N1CCOC[C@H]1Cc1ccc(O)c(-c2ncccn2)c1 [Example 55, [(R)-3-(4-Hydroxy-3-pyrimidin-2-yl-benzyl)-morpholin-4-yl]-(2-[1,2,3]triazol-2-yl-phenyl)-methanone] |  | 2010 nM | 27 nM |  | 
O=C(c1cccc(F)c1-n1nccn1)N1CCOC[C@H]1Cc1cccc(-c2ncon2)c1 [Example 82, (3-Fluoro-2-[1,2,3]triazol-2-yl-phenyl)-[(R)-3-(3-[1,2,4]oxadiazol-3-yl-benzyl)-morpholin-4-yl]-methanone] |  | 1140 nM | 41 nM |  | 
Cc1ccc(C(=O)N2[C@H](Cc3cccc(-n4nccn4)c3)COC[C@H]2C)c(-n2nccn2)c1 [Example 69, [(3R,5R)-3-Methyl-5-(3-[1,2,3]triazol-2-yl-benzyl)-morpholin-4-yl]-(4-methyl-2-[1,2,3]triazol-2-yl-phenyl)-methanone] |  |  |  | 314 nM | 0.9 nM
Cc1ccc(-n2nccn2)c(C(=O)N2CCOC[C@H]2Cc2cccc(-n3cccc3)c2)c1 [Example 38, (5-Methyl-2-[1,2,3]triazol-2-yl-phenyl)-[(R)-3-(3-pyrrol-1-yl-benzyl)-morpholin-4-yl]-methanone] |  | 131 nM | 1 nM |  | 
Cc1cccc(C(=O)N2CCOC[C@H]2Cc2cc(-c3ncon3)ccc2F)c1-n1nccn1 [Example 177, [(R)-3-(2-Fluoro-5-[1,2,4]oxadiazol-3-yl-benzyl)-morpholin-4-yl]-(3-methyl-2-[1,2,3]triazol-2-yl-phenyl)-methanone] |  | 893 nM | 25 nM |  | 
O=C(c1ccccc1-n1nccn1)N1CCOC[C@H]1Cc1cccc(-c2cccs2)c1 [Example 46, [(R)-3-(3-Thiophen-2-yl-benzyl)-morpholin-4-yl]-(2-[1,2,3]triazol-2-yl-phenyl)-methanone] |  | 163 nM | 0.5 nM |  | 
Cc1cccc(C(=O)N2[C@H](Cc3cccc(-n4nccn4)c3)COC[C@@H]2C)c1-n1nccn1 [Example 72, [(3S,5R)-3-Methyl-5-(3-[1,2,3]triazol-2-yl-benzyl)-morpholin-4-yl]-(3-methyl-2-[1,2,3]triazol-2-yl-phenyl)-methanone] |  | 2460 nM | 8 nM |  | 
Cc1cc(-n2nccn2)c(C(=O)N2CCOC[C@H]2Cc2cccc(-n3nccn3)c2)cc1Cl [Example 103, (5-Chloro-4-methyl-2-[1,2,3]triazol-2-yl-phenyl)-[(R)-3-(3-[1,2,3]triazol-2-yl-benzyl)-morpholin-4-yl]-methanone] |  | 47 nM | 0.7 nM |  | 
Cc1ccc(-n2nccn2)c(C(=O)N2C[C@@H](C)OC[C@H]2Cc2cc(-n3ccnn3)ccc2F)c1 [Example 140, [(2R,5R)-5-(2-Fluoro-5-[1,2,3]triazol-1-yl-benzyl)-2-methyl-morpholin-4-yl]-(5-methyl-2-[1,2,3]triazol-2-yl-phenyl)-methanone] |  | 1110 nM | 27 nM |  | 
Cc1ccc(-n2nccn2)c(C(=O)N2CCO[C@@H](C)[C@H]2Cc2cccc(-n3nccn3)c2)c1 (single isomer, unassigned) [Example 162, [(2S,3R)-2-Methyl-3-(3-[1,2,3]triazol-2-yl-benzyl)-morpholin-4-yl]-(5-methyl-2-[1,2,3]triazol-2-yl-phenyl)-methanone or [(2R,3R)-2-Methyl-3-(3-[1,2,3]triazol-2-yl-benzyl)-morpholin-4-yl]-(5-methyl-2-[1,2,3]triazol-2-yl-phenyl)-methanone] |  | 2530 nM | 24 nM |  | 
Cc1ccc(-n2nccn2)c(C(=O)N2CCOC[C@H]2Cc2cccc(-c3cccnc3)c2)c1 [Example 25, (5-Methyl-2-[1,2,3]triazol-2-yl-phenyl)-[(R)-3-(3-pyridin-3-yl-benzyl)-morpholin-4-yl]-methanone] |  | 1400 nM | 11 nM |  | 
O=C(c1c(F)cccc1-n1nccn1)N1CCOC[C@H]1Cc1cc(-n2nccn2)ccc1F [Example 136, [(R)-3-(2-Fluoro-5-[1,2,3]triazol-2-yl-benzyl)-morpholin-4-yl]-(2-fluoro-6-[1,2,3]triazol-2-yl-phenyl)-methanone] |  | 574 nM | 37 nM |  | 
Cc1ccc(-n2nccn2)c(C(=O)N2CCO[C@H](C)[C@H]2Cc2cccc(-n3nccn3)c2)c1 (single isomer, unassigned) [Example 167, [(2R,3R)-2-Methyl-3-(3-[1,2,3]triazol-2-yl-benzyl)-morpholin-4-yl]-(5-methyl-2-[1,2,3]triazol-2-yl-phenyl)-methanone or [(2S,3R)-2-Methyl-3-(3-[1,2,3]triazol-2-yl-benzyl)-morpholin-4-yl]-(5-methyl-2-[1,2,3]triazol-2-yl-phenyl)-methanone] |  | 2380 nM | 19 nM |  | 
Cc1ccc(C(=O)N2C[C@@H](C)OC[C@H]2Cc2cc(-c3ncccn3)ccc2F)c(-n2nccn2)c1C [Example 151, (3,4-Dimethyl-2-[1,2,3]triazol-2-yl-phenyl)-[(2R,5R)-5-(2-fluoro-5-pyrimidin-2-yl-benzyl)-2-methyl-morpholin-4-yl]-methanone] |  | 818 nM | 8 nM |  | 
O=C(c1ccccc1-n1nccn1)N1CCOC[C@@H]1Cc1cccc(-n2nccn2)c1 [Example 13, [(S)-3-(3-[1,2,3]Triazol-2-yl-benzyl)-morpholin-4-yl]-(2-[1,2,3]triazol-2-yl-phenyl)-methanone] |  | 4440 nM | 966 nM |  | 
O=C(c1cc(F)ccc1-n1nccn1)N1CCOC[C@H]1Cc1cccc(-c2ncon2)c1 [Example 88, (5-Fluoro-2-[1,2,3]triazol-2-yl-phenyl)-[(R)-3-(3-[1,2,4]oxadiazol-3-yl-benzyl)-morpholin-4-yl]-methanone] |  | 893 nM | 30 nM |  | 
Cc1cc(C(=O)N2CCOC[C@H]2Cc2ccc(C)c(-c3ncon3)c2)c(-n2nccn2)cc1C [Example 79, (4,5-Dimethyl-2-[1,2,3]triazol-2-yl-phenyl)-[(R)-3-(4-methyl-3-[1,2,4]oxadiazol-3-yl-benzyl)-morpholin-4-yl]-methanone] |  | 13 nM | 0.4 nM |  | 
O=C(c1ccccc1-n1nccn1)N1CCOC[C@H]1Cc1ccc(Cl)c(-c2ncccn2)c1 [Example 194, [(R)-3-(4-Chloro-3-pyrimidin-2-yl-benzyl)-morpholin-4-yl]-(2-[1,2,3]triazol-2-yl-phenyl)-methanone] |  | 2260 nM | 33 nM |  | 
Cc1ccc(C(=O)N2CCO[C@H](C)[C@H]2Cc2cccc(-n3nccn3)c2)c(-n2nccn2)c1 (single isomer, unassigned) [Example 168, [(2R,3R)-2-Methyl-3-(3-[1,2,3]triazol-2-yl-benzyl)-morpholin-4-yl]-(4-methyl-2-[1,2,3]triazol-2-yl-phenyl)-methanone or [(2S,3R)-2-Methyl-3-(3-[1,2,3]triazol-2-yl-benzyl)-morpholin-4-yl]-(4-methyl-2-[1,2,3]triazol-2-yl-phenyl)-methanone] | 8500 nM |  |  |  | 
Cc1cc(C(=O)N2CCOC[C@H]2Cc2cc(-n3nccn3)ccc2F)c(-n2nccn2)cc1C [Example 128, (4,5-Dimethyl-2-[1,2,3]triazol-2-yl-phenyl)-[(R)-3-(2-fluoro-5-[1,2,3]triazol-2-yl-benzyl)-morpholin-4-yl]-methanone] |  | 30 nM | 0.7 nM |  | 
